Test results reported in patent publication US7652155B2, “Diamine derivative, production process therefor and antioxidant” (Nippon Soda Co., Ltd., priority 2003, dated 2010).
Structures can show the parent of a compound that is named as a salt. Where two headings read alike, the source gives them in different places.

How the values were obtained:
[1] = Acute oral toxicity in mice; settings: mouse, in vivo; male mice, single oral dose, observed for 7 days
Excerpt: A single dose of the test compounds according to the present invention was orally administered to male mice followed by observing for 7 days to determine the mortality rate. The compound indicated below was used for Control Drug 3.

[2] = system: lipid peroxide in rat brain homogenate; assay: Antioxidative action on lipids in vitro (lipid peroxide activity in rat brain homogenate, thiobarbituric acid method); type: biochemical; settings: 500 μM cysteine, 5 μM ferrous sulfate, 100 mM KCl, 30 minutes at 37° C., malondialdehyde, read-out: 50% inhibitory concentration of anti-lipid peroxide action in vitro (IC50)
Description: (§1) The antioxidative action on lipids in vitro of the compounds according to the present invention was evaluated in accordance with the method of Malvy et al. (Malvy C. et al.,) described in Biochemical and Biophysical Research Communications, 1980, vol. 95, pp. 734 to 737,) by measuring the lipid peroxide activity in a rat brain homogenate. Namely, the rat brain was removed followed by the addition of five volumes of an aqueous solution of phosphate buffered saline (pH 7.4) (hereinafter, abbreviated as PBS) to the brain while cooling with water, homogenizing with a Teflon homogenizer, and centrifuging for 20 minutes at 10,000 g to collect the supernatant as a brain homogenate. 500 μM cysteine, 5 μM ferrous sulfate, and 100 mM KCl were added to the resulting brain homogenate followed by incubating for 30 minutes at 37° C. and measuring the malondialdehyde that formed due to decomposition of lipid peroxide using the thiobarbituric acid method. The 50% inhibitory concentrations (hereinafter, abbreviated as IC50) of the compounds according to the present invention were then determined from the measured values.

[3] = system: lipid peroxide in homogenates of brain, heart and kidneys; assay: Tissue migration: antioxidative action on lipids ex vivo after intraperitoneal administration; type: in vivo; settings: Rattus norvegicus, ip, 0.5 h, male SD rats, 100 mg/kg intraperitoneally, 30 minutes after administration
Description: as §1
Tissue migration of the compounds according to the present invention was evaluated by measuring the antioxidative action on lipids ex vivo. A test compound dissolved or suspended in an aqueous physiological saline solution or aqueous physiological saline solution containing 1% polyethylene hardened castor oil (Nikko Chemicals: Nikkol HCO-60) was intraperitoneally administered to male SD rats (age: 6 weeks) (purchased from Japan SLC) in groups of 3 animals each at a dose of 100 mg/kg. The animals were sacrificed by exsanguination by severing the carotid artery 30 minutes after administration followed by removing the brain, heart and kidneys. The lipid peroxide activity of homogenates of each tissue was measured using the method described in Example 4. The inhibition rates of the test compounds in each tissue were determined from the amounts of lipid peroxide formed in a control group (physiological saline dose group) and test compound groups.

[4] = system: mice administered ferrous chloride into the spinal subarachnoid cavity; assay: Antioxidative action in vivo: abnormal behavior and mortality after ferrous chloride into the spinal subarachnoid cavity; design: species or system mouse; settings: male Slc:ICR mice, 30 minutes before ferrous chloride, score after 60 minutes
Description: The antioxidative action in vivo of the compounds according to the present invention was evaluated according to the method described in the Journal of Medical Chemistry (J. Med. Chem., 1997, vol. 40, pp. 559 to 573) based on the inhibitory effects on abnormal behavior and mortality rate following administration of ferrous chloride into the spinal subarachnoid cavity of mice. Male Slc:ICR mice (age: 5 weeks) (purchased from Japan SLC) were used in groups of 3 to 7 animals each, and were administered 5 μl of aqueous physiological saline solution containing 50 mM ferrous chloride into the spinal column between the 5th and 6th lumbar vertebra. […] The test compounds were dissolved or suspended in an aqueous physiological saline solution or an aqueous physiological saline solution containing 1% polyethylene hardened castor oil (manufactured by Nikko Chemicals CO., LTD. under the name of NIKKOL HCO-60), and administered intraperitoneally or orally 30 minutes before the administration of ferrous chloride. The 50% inhibitory dose (hereinafter, abbreviated as ID50) of each test compound was determined from the score of a control group (physiological saline treated group) and the score of each test compound treated group.

[5] = system: lipid peroxides in retina homogenate; assay: Retina migration: formation of lipid peroxides in retina ex vivo after oral administration; design: species or system rat; settings: male SD rats, retinas removed 30 minutes later, auto-oxidized 1 hour at 37° C.
Description: The retina migration of the compounds according to the present invention was evaluated. The test compounds dissolved or suspended in 0.1 N aqueous hydrochloric acid solution or 1% polyethylene hardened castor oil (Nikkol HCO-60) solution were orally administered to male SD rats (age: 6 weeks) in groups of three animals each followed by removing both eyes 30 minutes later and separating the retinas while cooling with ice. The retinas were homogenized with a Polytron Microhomogenizer (NS-310E: manufactured by Niti-On Medical and Physical Instruments) in 0.1 M Tris-HCl buffer (pH 7.4) while cooling with ice to prepare 5% homogenates. The homogenates were then auto-oxidized for 1 hour at 37° C., and the amounts of lipid peroxide that formed were quantified using the thiobarbituric acid method (Masugi, et al., Vitamin, 51, 21 to 29, 1977).

[6] = system: 66 kDa protein in rat retina; assay: Inhibitory action on increases in 66 kDa protein in UV-A irradiated rat retina; type: in vivo; settings: male Wistar rats, 100 mg/kg p.o. 30 minutes before UV-A (12 mW/cm^2, 30 minutes); retinas 48 hours after irradiation; N = 3
Description: The inhibitory action of the compound according to the present invention on increases in 66 kDa protein in rat retina irradiated with UV light was evaluated. The test compound was dissolved or suspended in 0.1 N aqueous hydrochloric acid solution or 1% polyethylene hardened castor oil (Nikkol HCO-60) and orally administered to male Wistar rats (age: 7-9 weeks) followed 30 minutes later by irradiation of the right eye with UV-A (12 mW/cm^2) for 30 minutes using a UV spot light source. In addition, the left eye was not irradiated and used as a control. The rats were housed in an environment blocked from interior light both during UV-A irradiation and for 2 hours before and after irradiation. The retinas were separated 48 hours after irradiation and 5% homogenates were prepared using the same method as described in Example 4. Changes in retina protein were determined by SDS-polyacrylamide gel electrophoresis in accordance with the method of Lammli (Nature, […], 680 to 685, 1970). […] Subsequently, the gel was decolored with a mixture of ethanol, acetic acid, and water (25:8:65) and the 66 kDa protein following electrophoresis was analyzed by densitrography. The amount of protein in the samples was determined using the Lowry method.

5-lipoxygenase (5-LO) = biological target: T1, 5-lipoxygenase (5-LO) (Homo sapiens, UniProt P09917); assay: 5-LO inhibitory activity (leucotriene B4 formation in human peripheral blood mononuclear cells, A23187); type: cell-based; settings: 30 μM A23187, leucotriene B4, read-out: Lipoxygenase inhibitory action 50% inhibitory concentration (IC50), 5-LO
T1 construct: human peripheral blood mononuclear cells; endogenous in cells; host or cells: human peripheral blood mononuclear cells
T1 sequence (P09917 1-674): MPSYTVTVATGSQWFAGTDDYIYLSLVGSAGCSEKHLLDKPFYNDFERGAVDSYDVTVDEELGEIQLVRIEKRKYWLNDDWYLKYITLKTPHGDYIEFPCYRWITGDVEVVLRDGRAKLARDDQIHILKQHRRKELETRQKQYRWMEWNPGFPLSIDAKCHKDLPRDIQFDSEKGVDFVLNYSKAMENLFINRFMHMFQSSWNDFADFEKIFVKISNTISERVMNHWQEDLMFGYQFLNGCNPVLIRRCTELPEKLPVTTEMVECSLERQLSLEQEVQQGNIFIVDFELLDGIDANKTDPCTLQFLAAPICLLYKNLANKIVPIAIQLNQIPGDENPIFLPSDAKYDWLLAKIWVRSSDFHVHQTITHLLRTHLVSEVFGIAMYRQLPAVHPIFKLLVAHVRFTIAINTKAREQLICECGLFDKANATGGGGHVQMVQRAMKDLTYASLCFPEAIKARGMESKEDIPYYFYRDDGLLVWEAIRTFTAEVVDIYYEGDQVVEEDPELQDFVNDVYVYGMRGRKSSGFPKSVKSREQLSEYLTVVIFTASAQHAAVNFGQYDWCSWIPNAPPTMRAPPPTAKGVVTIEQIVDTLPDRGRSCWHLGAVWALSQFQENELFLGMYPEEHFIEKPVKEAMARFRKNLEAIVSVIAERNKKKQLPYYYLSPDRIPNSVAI
Description: 5-LO inhibitory activity was measured using a variation of the method of Carter et al. (Carter G. W. et al., J. Pharmacol. Exp. Ther., 256, 929 to 937, 1991). Namely, after pre-incubating (37° C., 15 minutes) in Hank's solution human peripheral blood mononuclear cells and a test compound dissolved in DMSO (final concentration: 1%), 30 μM A23187 was added and the resulting solution was additionally incubated (37° C., 30 minutes). The resulting leucotriene B4 that formed was quantified by enzyme immunoassay, and the 50% formation inhibitory concentration (μM) of the test compound with respect to 5-LO was calculated from that value.

15-lipoxygenase (15-LO) = biological target: T2, 15-lipoxygenase (15-LO) (Oryctolagus cuniculus, UniProt P12530); assay: 15-LO inhibitory activity (15-LO from rabbit reticulocytes, linoleic acid); type: biochemical; settings: 256 μM linoleic acid, 4° C., read-out: Lipoxygenase inhibitory action 50% inhibitory concentration (IC50), 15-LO
T2 construct: 15-LO obtained from rabbit reticulocytes; from tissue; host or cells: rabbit reticulocytes
T2 sequence (P12530 1-663): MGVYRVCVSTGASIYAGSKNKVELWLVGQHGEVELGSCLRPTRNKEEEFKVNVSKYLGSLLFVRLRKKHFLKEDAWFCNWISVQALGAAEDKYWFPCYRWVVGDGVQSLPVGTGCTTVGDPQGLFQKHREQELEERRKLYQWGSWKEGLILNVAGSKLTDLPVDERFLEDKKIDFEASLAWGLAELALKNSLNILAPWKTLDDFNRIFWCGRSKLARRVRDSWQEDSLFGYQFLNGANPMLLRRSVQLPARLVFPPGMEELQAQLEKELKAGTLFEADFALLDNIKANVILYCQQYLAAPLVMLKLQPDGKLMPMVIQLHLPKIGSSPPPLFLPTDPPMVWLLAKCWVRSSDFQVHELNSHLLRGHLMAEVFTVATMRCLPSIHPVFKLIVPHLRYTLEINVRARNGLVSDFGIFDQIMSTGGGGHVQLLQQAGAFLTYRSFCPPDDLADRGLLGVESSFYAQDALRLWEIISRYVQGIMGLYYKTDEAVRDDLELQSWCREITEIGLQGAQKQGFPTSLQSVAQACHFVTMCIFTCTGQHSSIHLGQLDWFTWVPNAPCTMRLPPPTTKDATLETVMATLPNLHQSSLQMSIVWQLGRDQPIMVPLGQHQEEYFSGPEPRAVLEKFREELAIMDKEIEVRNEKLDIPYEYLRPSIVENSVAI
Description: 15-LO inhibitory activity was measured using a variation of the method of Auerbach et al. (Auerbach B. J. et al., Anal. Biochem., 201, 375 to 380, 1992). Namely, after pre-incubating (4° C., 15 minutes) in phosphate buffer (pH 7.4) 15-LO obtained from rabbit reticulocytes and a test compound dissolved in DMSO (final concentration: 1%), 256 μM linoleic acid was added and the resulting solution was additionally incubated (4° C., 10 minutes). The resulting 15-HETE that formed was quantified by spectrophotometry (OD660 nm), and the 50% formation inhibitory concentration (μM) of the test compound with respect to 15-LO was calculated from that value.

[7] = brain homogenate, read-out: Inhibition rate of ex vivo anti-lipid peroxide action, Brain
[8] = heart homogenate, read-out: Inhibition rate of ex vivo anti-lipid peroxide action, Heart
[9] = kidney homogenate, read-out: Inhibition rate of ex vivo anti-lipid peroxide action, Kidney

| Structure (SMILES) | LD50 at 7 days [1] | IC50 [2] | inhibition at 100 mg/kg [3, 7] | inhibition at 100 mg/kg [3, 8] | inhibition at 100 mg/kg [3, 9] | Antioxidative action in vivo 50% inhibitory dose (ID50), Intraperitoneal administration [4] | Antioxidative action in vivo 50% inhibitory dose (ID50), Oral administration [4] | Inhibitory effect on formation of lipid peroxides in retina ex vivo 30% inhibitory concentration (ID30, oral administration) [5] | Ratio of 66 kDa protein in UV-irradiated rat retina (right eye: irradiated/left eye: non-irradiated) [6] | IC50 (5-lipoxygenase (5-LO)) | IC50 (15-lipoxygenase (15-LO)) |
| --- | --- | --- | --- | --- | --- | --- | --- | --- | --- | --- | --- |
| Cc1c(C)c2c(c(CN)c1N)CCC(C)(C)O2 [Compound No. 2, 2,2,7,8-tetramethyl-5-aminomethyl-6-aminochroman•-dihydrochloride] | > 1000 mg/kg | 0.34 µM | 98% | 96% | 97% | 2.6 mg/kg | 12 mg/kg | 6.9 mg/kg |  |  |  |
| Cc1c(C)c2c(c(CN)c1N)CC(C)(C)O2 [Compound No. 1] | > 1000 mg/kg |  | 93% | 81% | 83% | 1.8 mg/kg | 6 mg/kg | 16 mg/kg | 1.45 | > 10 µM | 3.74 µM |
| Cc1c(C)c2c(c(N)c1N)CC(C)(C)O2 [Control drug 1, reference compound] |  | 1.4 µM | 94% | 84% | 87% | >30 mg/kg | >30 mg/kg |  |  |  |  |
| Cc1c(C)c2c(c(C)c1N)CC(C)(CN1CCC(c3ccccc3)CC1)O2 (centres unmarked) [Control Drug 2, reference compound] | < 300 mg/kg |  |  |  |  |  |  |  |  | > 10 µM |  |
